ChEMBL document CHEMBL1131364, “Novel modified tripeptide inhibitors of alpha 4 beta 7 mediated lymphoid cell adhesion to MAdCAM-1” (Bioorg Med Chem Lett, 1998)
Numbered stars: 1 amine (or outer) side, 2 acyl side, 3 side chain; on linkers, the order of the positions; unused ones are H or OH. Peptide text beside a SMILES is read from it. * marks the point of attachment. CO = O=C([*:1])[*:2]; NHPh = c1ccc(N*)cc1

Experiment: In vitro inhibition of RPMI 8866 cell adhesion to human MAdCAM-1 IgG chimera.
Type: cell-based

Row | Structure (SMILES) | IC50 [µM]
1 | CC(C)C[C@H](NC(=O)c1cc2ccccc2o1)C(=O)N[C@@H](CC(=O)O)C(=O)N[C@H](C(=O)NCc1ccc(F)c(F)c1)[C@@H](C)O | 5.2
2 | COc1ccc(CNC(=O)[C@@H](NC(=O)[C@H](CC(=O)O)NC(=O)[C@H](CC(C)C)NC(=O)c2cc3ccccc3cn2)[C@@H](C)O)cc1 | 3
3 | CC(C)C[C@H](NC(=O)c1coc2ccccc2c1=O)C(=O)N[C@@H](CC(=O)O)C(=O)N[C@H](C(N)=O)[C@@H](C)O | 1.3
4 | CC(C)C[C@H](NC(=O)c1ccc([N+](=O)[O-])cc1)C(=O)N[C@@H](CC(=O)O)C(=O)N[C@H](C(N)=O)[C@@H](C)O | 9
5 | COc1ccc(C(=O)N[C@@H](CC(C)C)C(=O)N[C@@H](CC(=O)O)C(=O)N[C@H](C(N)=O)[C@@H](C)O)cc1 | > 25
6 | CC(C)C[C@H](NC(=O)c1cc2ccccc2o1)C(=O)N[C@@H](CC(=O)O)C(=O)N[C@H](C(N)=O)[C@@H](C)O | 2.3
7 | CC(C)C[C@H](NC(=O)/C=C/c1ccccc1)C(=O)N[C@@H](CC(=O)O)C(=O)N[C@H](C(N)=O)[C@@H](C)O | 4.9
8 | CC(C)C[C@H](NC(=O)c1ccccc1)C(=O)N[C@@H](CC(=O)O)C(=O)N[C@H](C(N)=O)[C@@H](C)O (HELM PEPTIDE1{[O=C(c1ccccc1)[*:2]].L.D.T.[am]}$$$$V2.0) | 8.2
9 | CC(C)C[C@H](NC(=O)Nc1ccccc1)C(=O)N[C@@H](CC(=O)O)C(=O)N[C@H](C(N)=O)[C@@H](C)O ({NHPh-CO}-Leu-Asp-Thr-NH2) | > 25

Results, then the compound that gave them:

Row | IC50 [µM] | Structure (SMILES)
10 | > 25 | COc1ccc(CCNC(=O)[C@@H](NC(=O)[C@H](CC(=O)O)NC(=O)[C@H](CC(C)C)NC(=O)c2cc3ccccc3cn2)[C@@H](C)O)cc1
11 | 5.2 | CC(C)C[C@H](NC(=O)c1cc2ccccc2cn1)C(=O)N[C@@H](CC(=O)O)C(=O)N[C@H](C(=O)NCc1ccc(F)cc1)[C@@H](C)O
12 | 6.4 | CC(C)C[C@H](NC(=O)c1coc2ccccc2c1=O)C(=O)N[C@@H](CC(=O)O)C(=O)NC(C(N)=O)C(O)c1ccccc1 (some centres undefined)
13 | 3.9 | CC(C)C[C@H](NC(=O)c1cc2ccccc2cn1)C(=O)N[C@@H](CC(=O)O)C(=O)N[C@@H](C(N)=O)[C@@H](C)O
14 | 4.4 | CC(C)C[C@H](NC(=O)c1cc2ccccc2o1)C(=O)N[C@@H](CC(=O)O)C(=O)N[C@H](C(=O)NCc1ccc2c(c1)OCO2)[C@@H](C)O
15 | 3.1 | CC(C)C[C@H](NC(=O)c1cc2ccccc2cn1)C(=O)N[C@@H](CC(=O)O)C(=O)N[C@H](C(N)=O)[C@@H](C)O
16 | > 25 | CC(C)C[C@H](NS(=O)(=O)c1ccccc1)C(=O)N[C@@H](CC(=O)O)C(=O)N[C@H](C(N)=O)[C@@H](C)O
17 | 1.1 | CC(C)C[C@H](NC(=O)c1cc2ccccc2cn1)C(=O)N[C@@H](CC(=O)O)C(=O)N[C@H](C(=O)NCc1ccncc1)[C@@H](C)O
18 | 4.7 | CC(C)C[C@H](NC(=O)c1coc2ccccc2c1=O)C(=O)N[C@@H](CC(=O)O)C(=O)N[C@H](C(N)=O)[C@H](C)O
19 | 250 | CC(=O)N[C@@H](CC(C)C)C(=O)N[C@@H](CC(=O)O)C(=O)N[C@H](C(N)=O)[C@@H](C)O (Ac-Leu-Asp-Thr-NH2)
